From article PMC6920042 (Nature chemical biology, 2019)

Experiments:
[1] = system: Staphylococcus carnosus femB mutant; details: cited from earlier work
[2] = system: Staphylococcus carnosus; details: before femB mutation; cited from earlier work
[3] = NMR CSP residual binding of SH3b mutant domains to P4 ligand; details: 32 equivalents
[4] = NMR CSP residual binding of SH3b mutant domains to G5 ligand; details: 32 equivalents

Q: Which results are given for “lysostaphin: bacteriolytic enzyme produced and secreted by Staphylococcus simulans biovar staphylolyticus”?
A: increase in the MIC values associated with femB mutation ([1]; femB mutant vs parent): 3000 fold; MIC ([1]; femB mutant): 32 µg/mL; MIC [2]: 0.01 µg/mL

B1: W489L: His-tagged lysostaphin SH3b domain with W489L substitution, for NMR (protein)
chain: SESASFTPNTDIITRTTGPFRSMPQSGVLKAGQTIHYDEVMKQDGHVWVGYTGNSGQRIYLPVRTWNKSTNTLGVLL
modifications: left off: His-tag, N-terminal, kept
Q: For B1, which “residual binding (ratio of chemical shift changes of mutant to WT, averaged over all amino acids)” value [3] is on record?
A: 6.6%

B2: R427M: His-tagged lysostaphin SH3b domain with R427M substitution, for NMR (protein)
chain: SESASFTPNTDIITMTTGPFRSMPQSGVLKAGQTIHYDEVMKQDGHVWVGYTGNSGQRIYLPVRTWNKS
modifications: left off: His-tag, N-terminal, kept
Q: For B2, which “residual binding (ratio of chemical shift changes of mutant to WT, averaged over all amino acids)” value [3] is on record?
A: 1.6%

B3: N405A: His-tagged lysostaphin SH3b domain with N405A substitution, for NMR (protein)
chain: AKYGTLYKSESASFTPNTDIITRTTGPFRSMPQSGVLKAGQTIHYDEVMKQDGHVWVGYTGNSGQRIYLPVRTWNKS
modifications: left off: His-tag, N-terminal, kept
Q: Which “residual binding (ratio of chemical shift changes of mutant to WT, averaged over all amino acids)” value [4] does the source give for B3 here?
A: 16%
